In brackets after ≈: the same amount, converted by molar mass. Read-outs that look alike come from different tables or passages of the source.
Key:
[1] = system: selected Gram-negative and Gram-positive microorganisms; assay: MIC activity groups over all tested strains; format: cell-based; parameters: key: a: most potent; b: intermediate; least active; details: MIC panel
Description: (§1) MIC values were determined according to the ninth edition of the Approved Standard M07-A9. The test was carried out for six different bacterial strains (E. coli DSM 1116 (Gram-negative), E. coli BW25113 (Gram-negative), B. subtilis DSM 10 (Gram-positive), M. luteus DSM 1790 (Gram-positive), M. phlei DSM 750 (Gram-positive), S. typhimurium TA 100 (Gram-negative). First, 20 µl of glycerol stock of each strain was inoculated in 20 ml LB (Lennox) followed by incubation overnight at 37 °C, 200 r.p.m. The test inoculum was adjusted by the 0.5 McFarland Standard. Within 15 min of preparation, the adjusted inoculum suspension was diluted in MHBII so that each well contained approximately 5 × 10^5 c.f.u. ml^−1 in a final volume of 100 µl. Then, 95 µl of the inoculum was applied per well and 5 µl of the (diluted) albicidins was added. For dilutions, the dry powders were dissolved in dimethylsulfoxide (DMSO) with a concentration of 2.56 mg ml^−1, and the obtained stock solutions were further diluted in DMSO. Next, 5 µl of each antibiotic dilution was applied to the microdilution tray to reach final concentrations of 8 to 0.016 µg ml^−1. One row of each well plate served as a growth control without antibiotic and another row of the microdilution tray served as a sterility control (only MHBII media). The antimicrobial effect of the solvent was tested by adding 5 µl DMSO to several wells. Purity check and cell titre control were performed according to International Standard M07-A9 on Mueller–Hinton II Agar. Both microdilution trays and agar plates were incubated at 37 °C for 20 h.

[2] = target: T1, E. coli Topo IV (Escherichia coli, UniProt P0AFI2+P20083); assay: E. coli Topo IV relaxation assay; format: biochemical; details: tested 0.1, 1, 10, 100 µM
T1 sequence (P0AFI2 whole entry): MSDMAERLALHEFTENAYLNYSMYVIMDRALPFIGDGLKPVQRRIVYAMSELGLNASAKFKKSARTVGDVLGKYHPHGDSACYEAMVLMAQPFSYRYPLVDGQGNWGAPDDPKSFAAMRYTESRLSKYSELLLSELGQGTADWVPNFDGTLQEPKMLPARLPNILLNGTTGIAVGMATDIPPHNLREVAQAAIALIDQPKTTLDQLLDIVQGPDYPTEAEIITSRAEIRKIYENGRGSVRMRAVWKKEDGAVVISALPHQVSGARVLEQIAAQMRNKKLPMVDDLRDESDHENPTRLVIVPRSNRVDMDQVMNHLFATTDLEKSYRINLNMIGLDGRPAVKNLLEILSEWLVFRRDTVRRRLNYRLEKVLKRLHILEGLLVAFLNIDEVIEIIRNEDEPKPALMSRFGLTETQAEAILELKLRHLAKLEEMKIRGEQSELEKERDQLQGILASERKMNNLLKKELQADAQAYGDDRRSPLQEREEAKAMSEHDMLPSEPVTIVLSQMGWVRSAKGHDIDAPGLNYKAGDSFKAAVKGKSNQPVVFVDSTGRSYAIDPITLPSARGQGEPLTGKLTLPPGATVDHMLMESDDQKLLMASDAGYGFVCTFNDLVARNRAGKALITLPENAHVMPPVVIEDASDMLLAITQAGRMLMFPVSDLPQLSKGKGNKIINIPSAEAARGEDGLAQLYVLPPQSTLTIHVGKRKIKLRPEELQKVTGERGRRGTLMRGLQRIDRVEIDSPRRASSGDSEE
T1 sequence (P20083 whole entry): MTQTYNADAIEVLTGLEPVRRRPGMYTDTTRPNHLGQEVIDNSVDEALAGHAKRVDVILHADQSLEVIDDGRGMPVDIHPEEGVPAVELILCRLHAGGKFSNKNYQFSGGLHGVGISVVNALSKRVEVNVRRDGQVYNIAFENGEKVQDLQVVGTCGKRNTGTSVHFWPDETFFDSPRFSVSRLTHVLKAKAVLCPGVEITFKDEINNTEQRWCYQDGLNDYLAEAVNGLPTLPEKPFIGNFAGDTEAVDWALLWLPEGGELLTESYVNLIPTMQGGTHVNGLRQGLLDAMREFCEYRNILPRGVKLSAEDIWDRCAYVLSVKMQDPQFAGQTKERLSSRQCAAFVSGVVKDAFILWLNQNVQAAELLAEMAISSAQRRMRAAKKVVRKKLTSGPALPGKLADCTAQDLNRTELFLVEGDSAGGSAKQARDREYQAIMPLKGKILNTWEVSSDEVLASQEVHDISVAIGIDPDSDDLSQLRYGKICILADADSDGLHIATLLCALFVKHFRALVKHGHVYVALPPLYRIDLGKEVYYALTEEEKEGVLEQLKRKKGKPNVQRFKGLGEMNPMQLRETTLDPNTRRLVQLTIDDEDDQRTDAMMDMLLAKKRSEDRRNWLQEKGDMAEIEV
Description: E. coli Topo IV relaxation assays were set up in the same way as supercoiling assays with some modifications. The substrate was negatively supercoiled DNA, E. coli Topo IV relaxation buffer (50 mM K-HEPES pH 7.6, 100 mM potassium glutamate, 10 mM magnesium acetate, 10 mM DTT, 1 mM ATP and 0.05 mg ml^−1 BSA) and reactions were incubated for 1 h. Reactions were stopped in the same way as supercoiling assays.
(§2) Results were visualized by agarose gel electrophoresis: 1% agarose Tris-acetate-EDTA (TAE) gels were run without ethidium bromide (supercoiling) or with 10 µg ml^−1 ethidium bromide (cleavage) at 8 V cm^−1.
Supplementary Figure 11. Activity of albicidin and Albi-1/2/3 on E. coli topoisomerase IV. a. Plasmid relaxation activity of E. coli topo IV in the presence of albicidin, Albi-1, Albi-2 and Albi-3. First lane: negatively supercoiled pBR322; second lane: innate relaxation activity of E. coli topo IV (12.5 nM); third lane: effect of 20 µM CFX; subsequent lanes: effect of increasing compound concentration (0.1, 1, 10, 100 […]
(§3) higher concentration. b. Cleavage activity of E. coli topo IV in the presence of albicidin, Albi-1, Albi-2 and Albi-3. First lane: negatively supercoiled pBR322; second lane: innate cleavage activity of E. coli topo IV (15 nM); third lane: effect of 20 µM CFX; subsequent lanes: effect of increasing compound concentration (0.1, 1, 10, 100 µM). […]
(§4) concentration. All experiments were carried out in triplicates and representative gels […]
(§5) (1 picture or pasted object on this page, not shown here)

[3] = target: T1, E. coli Topo IV; assay: Topo IV cleavage assay (cleavage complex stabilization); format: biochemical; details: for concentration at which a linear DNA band could be observed: Topo IV cleavage complex stabilization, tested 0.1, 1, 10, 100 µM; for stabilization of the cleavage complex with Topo IV: in words
Description: Topo IV cleavage assays were set up in the same way as relaxation assays with some modifications. The concentration of enzyme was increased by 20% and cleavage complexes were trapped by the addition of 0.2% SDS and proteinase K (0.2 mg ml^−1) and further incubation at 37 °C for 30 min. Reactions were stopped in the same way as supercoiling assays.
as §2
Supplementary Figure 11. Activity of albicidin and Albi-1/2/3 on E. coli […]
as §3, with “Cleavage” for “higher concentration. b. Cleavage”
as §4, §5

[4] = system: E. coli BW25113; assay: MIC determination (microdilution, M07-A9); format: cell-based
Description: as §1

[5] = system: M. phlei DSM750; assay: MIC determination (microdilution, M07-A9); format: cell-based; details: Mycolicibacterium phlei
Description: as §1

[6] = system: S. typhimurium TA100; assay: MIC determination (microdilution, M07-A9); format: cell-based
Description: as §1

[7] = system: M. luteus DSM1790; assay: MIC determination (microdilution, M07-A9); format: cell-based
Description: as §1

[8] = system: E. coli DSM116; assay: MIC determination (microdilution, M07-A9); format: cell-based; details: Escherichia coli, DSM116, E. coli DSM116, read-out: MIC
Description: as §1

[9] = system: B. subtilis DSM10; assay: MIC determination (microdilution, M07-A9); format: cell-based; details: Bacillus subtilis
Description: as §1

[10] = E. coli BW25113, second value in cell (biological replicate)
[11] = Escherichia coli, E. coli BW25113, first value in cell (biological replicate), read-out: MIC
[12] = first value in cell (biological replicate)
[13] = second value in cell (biological replicate)
[14] = Salmonella enterica, first value in cell (biological replicate), read-out: MIC
[15] = Micrococcus luteus, first value in cell (biological replicate), read-out: MIC
[16] = Escherichia coli, BW25113, E. coli strain not named, read-out: MIC for E. coli

For `COc1c(NC(=O)c2ccc(NC(=O)c3ccc(NC(=O)[C@H](CC#N)NC(=O)c4ccc(NC(=O)/C(C)=C/c5ccc(O)cc5)cc4)cc3)c(OC)c2O)ccc(C(=O)O)c1O` [Albicidin], the “activity group (superscript letter)” value [1] was “Albicidin^a”, the “concentration required for full inhibition of Topo IV relaxation activity” value [2] was 100 µM and the “concentration at which a linear DNA band could be observed” value [3] was 10 µM. The “stabilization of the cleavage complex with Topo IV” value (“stabilization” below) [3] was “could stabilize the cleavage complex”, the MIC [4, 10] was 0.063 µg/mL (≈ 0.0747 µM) and the MIC [4, 11] was 0.063 µg/mL (≈ 0.0747 µM). For the same molecule, the MIC [5, 12] was 2 µg/mL (≈ 2.37 µM), the MIC [5, 13] was 2 µg/mL (≈ 2.37 µM) and the MIC [6, 14] was 0.063 µg/mL (≈ 0.0747 µM). The MIC [7, 15] was 1 µg/mL (≈ 1.19 µM), the MIC [7, 13] was 1.0 µg/mL (≈ 1.19 µM) and the MIC [8, 12] was 0.063 µg/mL (≈ 0.0747 µM). It also gave an MIC [8, 13] of 0.063 µg/mL (≈ 0.0747 µM), an MIC [9, 12] of under 0.25 µg/mL and an MIC [9, 13] of 0.25 µg/mL (≈ 0.297 µM).
For `CC(C)Oc1c(NC(=O)c2ccc(NC(=O)[C@H](Cc3c[nH]nn3)NC(=O)c3ccc(NC(=O)c4ccc(C#N)cc4)cn3)cn2)ccc(C(=O)Nc2ccc(C(=O)O)cc2)c1O` [Albi-1], the “activity group (superscript letter)” value [1] was “Albi-1^a”, the “concentration required for full inhibition of Topo IV relaxation activity” value [2] was 10 µM and the “concentration at which a linear DNA band could be observed” value [3] was 1 µM. The “stabilization” value [3] was “could stabilize the cleavage complex”, the MIC [4, 10] was <0.016 <0.016 µg ml^−1 and the MIC [4, 16] was at most 0.016 µg/mL. The MIC [4, 11] was under 0.016 µg/mL, the MIC [5, 12] was 0.25 µg/mL (≈ 0.298 µM) and the MIC [5, 13] was 0.5 µg/mL (≈ 0.597 µM). For the same molecule, the MIC [6, 14] was under 0.016 µg/mL, the MIC [6, 13] was <0.016 <0.016 µg ml^−1 and the MIC [7, 15] was under 0.016 µg/mL. The MIC [7, 13] was <0.016 <0.016 µg ml^−1, the MIC [8, 12] was 0.031 µg/mL (≈ 0.037 µM) and the MIC [8, 13] was 0.031 µg/mL (≈ 0.037 µM). For the same molecule, the MIC [9, 12] was 0.031 µg/mL (≈ 0.037 µM) and the MIC [9, 13] was 0.063 µg/mL (≈ 0.0752 µM).
`COc1c(NC(=O)c2ccc(NC(=O)c3ccc(NC(=O)[C@H](Cc4c[nH]nn4)NC(=O)c4ccc(NC(=O)c5ccc6nc(C)ccc6c5)cc4)cn3)c(OC)c2O)ccc(C(=O)O)c1O` [Albi-3] was tested, and the “concentration required for full inhibition of Topo IV relaxation activity” value [2] was 10 µM, the “stabilization” value [3] was “could stabilize the cleavage complex” and the MIC [4, 10] was <0.016 <0.016 µg ml^−1. The MIC [4, 16] was under 0.016 µg/mL, the MIC [4, 11] was under 0.016 µg/mL and the MIC [5, 12] was 0.5 µg/mL (≈ 0.559 µM). For the same molecule, the MIC [5, 13] was 1 µg/mL (≈ 1.12 µM), the MIC [6, 14] was under 0.016 µg/mL and the MIC [6, 13] was <0.016 <0.016 µg ml^−1. The MIC [7, 15] was 0.063 µg/mL (≈ 0.0704 µM), the MIC [7, 13] was 0.063 µg/mL (≈ 0.0704 µM) and the MIC [8, 12] was under 0.016 µg/mL. For the same molecule, the MIC [8, 13] was under 0.016 µg/mL, the MIC [9, 12] was 0.063 µg/mL (≈ 0.0704 µM) and the MIC [9, 13] was 0.125 µg/mL (≈ 0.14 µM).
`COc1c(NC(=O)c2ccc(NC(=O)c3ccc(NC(=O)[C@H](Cc4c[nH]nn4)NC(=O)c4ccc(NC(=O)c5ccc6cc(O)ccc6c5)cc4)cn3)c(OCCN)c2O)ccc(C(=O)O)c1O` [Albi-2] was tested, and the “activity group (superscript letter)” value [1] was “Albi-2^b”, the “concentration required for full inhibition of Topo IV relaxation activity” value [2] was 100 µM and the MIC [4, 10] was 4.0 µg/mL (≈ 4.32 µM). For the same molecule, the MIC [4, 16] was 4 µg/mL (≈ 4.32 µM), the MIC [4, 11] was 4 µg/mL (≈ 4.32 µM) and the “increase in MIC for E. coli compared with the parent compound” value ([4]; vs albicidin) was 60 fold. The MIC [5, 12] was over 8 µg/mL, the MIC [5, 13] was over 8 µg/mL and the MIC [6, 14] was 0.5 µg/mL (≈ 0.541 µM). The MIC [6, 13] was 0.5 µg/mL (≈ 0.541 µM), the MIC [7, 15] was over 8 µg/mL and the MIC [7, 13] was >8.0 >8.0 µg ml^−1. The MIC [8, 12] was 2 µg/mL (≈ 2.16 µM), the MIC [8, 13] was 4 µg/mL (≈ 4.32 µM) and the MIC [9, 12] was over 8 µg/mL. It also gave an MIC [9, 13] of over 8 µg/mL.

Reference: PMC9886550, “Molecular mechanism of topoisomerase poisoning by the peptide antibiotic albicidin” (Nature Catalysis, 2023)
